Data published in patent publication US20130029970A1 (priority 2009, published 2013).
pEC50, pIC50: −log10 of the molar value.

Legend:
human CB2 receptors = target: T1, human CB2 receptors (Homo sapiens, UniProt P34972); assay: cAMP assay in HEK-293 cells, hCB2 agonist; format: cell-based
T1 construct: (cDNA clone) CNR0200000
Procedure, shortened: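 Stable hCB2 HEK-293 cells in HBSS/10 mM HEPES/0.1% fatty-acid-free BSA incubated 30 min at 37° C with compound; forskolin 90 uM in 3× compound mix.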

[1] = target: T2, recombinant human cannabinoid receptor CB1 (Homo sapiens, UniProt P21554); assay: Cannabinoid receptor radioligand binding assay, [3H]-CP 55,940 displacement, hCB1
T2 construct: (cDNA clone) CNR01L000
T2 sequence (P21554 whole entry): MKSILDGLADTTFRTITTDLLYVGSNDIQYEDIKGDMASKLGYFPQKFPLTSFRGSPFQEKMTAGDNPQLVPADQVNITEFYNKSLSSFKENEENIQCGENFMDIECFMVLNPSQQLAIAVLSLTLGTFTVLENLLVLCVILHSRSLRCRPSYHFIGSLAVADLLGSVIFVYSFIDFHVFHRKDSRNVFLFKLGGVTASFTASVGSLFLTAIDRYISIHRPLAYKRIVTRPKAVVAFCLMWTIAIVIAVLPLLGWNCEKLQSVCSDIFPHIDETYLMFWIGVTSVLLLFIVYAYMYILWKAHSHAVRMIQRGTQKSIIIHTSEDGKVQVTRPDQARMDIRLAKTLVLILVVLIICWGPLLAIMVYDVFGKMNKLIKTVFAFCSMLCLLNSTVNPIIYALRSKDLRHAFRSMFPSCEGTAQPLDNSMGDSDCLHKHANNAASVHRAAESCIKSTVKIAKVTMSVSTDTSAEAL
Procedure, shortened: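 Displacement of 0.5 nM [3H]-CP 55,940 (1 μM unlabeled CP 55,940 for nonspecific) measured by filtration and scintillation counting. Binding ran 90 min at room temperature in pH 7.5 Tris buffer with 0.1% fatty-acid-free BSA, using recombinant hCB1 HEK-293 membranes at 2-10 μg protein.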

T1 sequence (P34972 whole entry): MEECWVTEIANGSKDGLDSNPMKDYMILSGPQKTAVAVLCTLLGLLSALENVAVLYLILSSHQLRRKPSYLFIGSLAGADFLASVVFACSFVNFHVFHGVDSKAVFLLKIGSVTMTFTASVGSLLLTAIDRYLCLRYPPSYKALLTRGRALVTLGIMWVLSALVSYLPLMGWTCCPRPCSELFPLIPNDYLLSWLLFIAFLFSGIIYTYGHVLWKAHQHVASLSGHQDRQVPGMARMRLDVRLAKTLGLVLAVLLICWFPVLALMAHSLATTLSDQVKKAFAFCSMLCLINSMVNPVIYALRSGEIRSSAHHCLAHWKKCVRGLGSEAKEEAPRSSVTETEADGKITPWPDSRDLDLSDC

Compound	pEC50 (human CB2 receptors)	pIC50 [1]
C=Cn1c(C)cc2cc(C(=O)c3cccc(Cl)c3Cl)sc21 [Comp 29]	6.00 to 7.00	< 5.00
Cc1cc2cc(C(=O)c3cccc(Cl)c3Cl)sc2n1CCN1CCOCC1 [Compound 1, (2,3-dichlorophenyl)(5-methyl-6-(2-morpholinoethyl)-6H-thieno[2,3-b]pyrrol-2-yl)methanone]	> 7.00	6.00 to 7.00
CCCn1c(C)cc2cc(C(=O)c3cccc(Cl)c3Cl)sc21 [Compound 3, (2,3-Dichlorophenyl)(5-methyl-6-propyl-6H-thieno[2,3-b]pyrrol-2-yl)methanone]	> 7.00	5.00 to 6.00
Cc1cc2cc(C(=O)c3ccccc3Cl)sc2n1CCN1CCOCC1 [Compound 5, (2-Chlorophenyl)(5-methyl-6-(2-morpholinoethyl)-61-1-thieno[2,3-b]pyrrol-2-yl)methanone]	> 7.00	6.00 to 7.00
Cc1cc2cc(C(=O)c3ccc(Cl)cc3)sc2n1CCN1CCOCC1 [Compound 6, (4-Chlorophenyl)(5-methyl-6-(2-morpholinoethyl)-6H-thieno[2,3-b]pyrrol-2-yl)methanone]	> 7.00	5.00 to 6.00
Cc1cc2cc(C(=O)c3cccc(F)c3F)sc2n1CCN1CCOCC1 [Compound 8, (2,3-Difluorophenyl)(5-methyl-6-(2-morpholinoethyl)-6H-thieno[2,3-b]pyrrol-2-yl)methanone]	> 7.00	5.00 to 6.00
Cc1cc2cc(C(=O)c3ccc(Cl)c(Cl)c3)sc2n1CCN1CCOCC1 [Compound 9, (3,4-Dichlorophenyl)(5-methyl-6-(2-morpholinoethyl)-6H-thieno[2,3-b]pyrrol-2-yl)methanone]	6.00 to 7.00	5.00 to 6.00
Cc1cc2cc(C(=O)c3cccc4c3OCC4)sc2n1CCN1CCOCC1 [Compound 11, (2,3-Dihydrobenzofuran-7-yl)(5-methyl-6-(2-morpholinoethyl)-6H-thieno[2,3-b]pyrrol-2-yl)methanone]	> 7.00	6.00 to 7.00
COc1ccccc1C(=O)c1cc2cc(C)n(CCN3CCOCC3)c2s1 [Compound 13, (2-Methoxyphenyl)(5-methyl-6-(2-morpholinoethyl)-6H-thieno[2,3-b]pyrrol-2-yl)methanone]	> 7.00	6.00 to 7.00
Cc1cc2cc(C(=O)c3cccnc3Cl)sc2n1CCN1CCOCC1 [Compound 17, (2-Chloropyridin-3-yl)(5-methyl-6-(2-morpholinoethyl)-6H-thieno[2,3-b]pyrrol-2-yl)methanone]	> 7.00	< 5.00
Cc1cc2cc(C(=O)c3cccc(Cl)c3Cl)sc2n1CCC1CCOCC1 [Compound 18, (2,3-Dichlorophenyl)(5-methyl-6-(2-(tetrahydro-2H-pyran-4-yl)ethyl)-6H-thieno[2,3-b]pyrrol-2-yl)methanone]	> 7.00	6.00 to 7.00
COCCn1c(C)cc2cc(C(=O)c3cccc(Cl)c3Cl)sc21 [Compound 21, (2,3-Dichlorophenyl)(6-(2-methoxyethyl)-5-methyl-6H-thieno[2,3-b]pyrrol-2-yl)methanone]	> 7.00	6.00 to 7.00
Cc1cc2cc(C(=O)c3cccc(Cl)c3Cl)sc2n1CCN1CCCCC1 [Compound 23, (2,3-Dichlorophenyl)(5-methyl-6-(2-(piperidin-1-yl)ethyl)-6H-thieno[2,3-b]pyrrol-2-yl)methanone]	> 7.00	6.00 to 7.00
Cc1cc2cc(C(=O)c3cccc(Cl)c3Cl)sc2n1CC1CCCCN1C (stereo not shown) [Compound 24, (2,3-Dichlorophenyl)(5-methyl-6((1-methylpiperidin-2-yl)methyl)-6H-thieno[2,3-b]pyrrol-2-yl)methanone]	> 7.00	6.00 to 7.00
Cc1cc2cc(C(=O)c3cccc(Cl)c3Cl)sc2n1CCN1CCCC1 [Compound 28, (2,3-Dichlorophenyl)(5-methyl-6-(2-(pyrrolidin-1-yl)ethyl)-6H-thieno[2,3-b]pyrrol-2-yl)methanone]	> 7.00	6.00 to 7.00
COc1ccc(C(=O)c2cc3cc(C)n(CCN4CCOCC4)c3s2)cc1 [Compound 36, (4-methoxyphenyl)(5-methyl-6-(2-morpholinoethyl)-6H-thieno[2,3-b]pyrrol-2-yl)methanone]	> 7.00	5.00 to 6.00
Cc1cc2cc(C(=O)c3cccc(Cl)c3Cl)sc2n1S(=O)(=O)N(C)C [Compound 41, 2-(2,3-Dichlorobenzoyl)-N,N,5-trimethyl-6H-thieno[2,3-b]pyrrole-6-sulfonamide]	> 7.00	6.00 to 7.00
Cc1cc2cc(C(=O)c3ccccc3N)sc2n1CCN1CCOCC1 [Compound 48, (2-Aminophenyl)(5-methyl-6-(2-morpholinoethyl)-6H-thieno[2,3-b]pyrrol-2-yl)methanone]	> 7.00	< 5.00

Compound	pEC50 (human CB2 receptors)	pIC50 [1]
COCCn1c(C)cc2cc(C(=O)c3ccc(OC)cc3)sc21 [Compound 49, (6-(2-Methoxyethyl)-5-methyl-6H-thieno[2,3-b]pyrrol-2-yl)(4-methoxyphenyl)methanone]	6.00 to 7.00	< 5.00
COc1ccc(C(=O)c2cc3cc(C)n(CCN4CCOC4=O)c3s2)cc1 [Compound 50, 3-(2-(2-(4-Methoxybenzoyl)-5-methyl-6H-thieno[2,3-b]pyrrol-6-yl)ethyl)oxazolidin-2-one]	> 7.00	< 5.00
CCOc1ccc(C(=O)c2cc3cc(C)n(CCN4CCOCC4)c3s2)cc1 [Compound 55, (4-Ethoxyphenyl)(5-methyl-6-(2-morpholinoethyl)-6H-thieno[2,3-b]pyrrol-2-yl)methanone]	> 7.00	5.00 to 6.00
Cc1cc2cc(C(=O)c3ccc(N(C)C)cc3)sc2n1CCN1CCOCC1 [Compound 59, (4-(Dimethylamino)phenyl)(5-methyl-6-(2-morpholinoethyl)-6H-thieno[2,3-b]pyrrol-2-yl)methanone]	6.00 to 7.00	< 5.00
Cc1cc2cc(C(=O)c3ccc(F)cc3Cl)sc2n1CCN1CCOCC1 [Compound 64, (2-Chloro-4-fluorophenyl)(5-methyl-6-(2-morpholinoethyl)-6H-thieno[2,3-b]pyrrol-2-yl)methanone]	> 7.00	5.00 to 6.00
Cc1cc2cc(C(=O)c3ccc(OC(F)(F)F)cc3)sc2n1CCN1CCOCC1 [Compound 65, (5-Methyl-6-(2-morpholinoethyl)-6H-thieno[2,3-b]pyrrol-2-yl)(4-(trifluoromethoxy)phenyl)methanone]	6.00 to 7.00	5.00 to 6.00
COc1ccc(C(=O)c2cc3cc(C)n(CCN4CCOCC4)c3s2)c(F)c1 [Compound 68, (2-Fluoro-4-methoxyphenyl)(5-methyl-6-(2-morpholinoethyl)-6H-thieno[2,3-b]pyrrol-2-yl)methanone]	> 7.00	5.00 to 6.00
COc1ccc(C(=O)c2cc3cc(C)n(CCNS(C)(=O)=O)c3s2)cc1 [Compound 71, N-(2-(2-(4-Methoxybenzoyl)-5-methyl-6H-thieno[2,3-b]pyrrol-6-yl)ethyl)methanesulfonamide]	6.00 to 7.00	< 5.00
CCOC(=O)CCn1c(C)cc2cc(C(=O)c3ccc(OC)cc3)sc21 [Compound 72, Ethyl 3-(2-(4-methoxybenzoyl)-5-methyl-6H-thieno[2,3-b]pyrrol-6-yl)propanoate]	6.00 to 7.00	< 5.00
Cc1ccc(C(=O)c2cc3cc(C)n(CCN4CCOCC4)c3s2)c(F)c1 [Compound 80, (2-Fluoro-4-methylphenyl)(5-methyl-6-(2-morpholinoethyl)-6H-thieno[2,3-b]pyrrol-2-yl)methanone]	> 7.00	5.00 to 6.00
COc1ccc(C(=O)c2cc3cc(C)n(CCN4CCCC4)c3s2)cc1 [Compound 83, (4-Methoxyphenyl)(5-methyl-6-(2-(pyrrolidin-1-yl)ethyl)-6H-thieno[2,3-b]pyrrol-2-yl)methanone]	> 7.00	5.00 to 6.00
COc1ccc(C(=O)c2cc3cc(C)n(CCN4CCOCC4)c3s2)c(C)c1 [Compound 88, (4-Methoxy-2-methylphenyl)(5-methyl-6-(2-morpholinoethyl)-6H-thieno[2,3-b]pyrrol-2-yl)methanone]	> 7.00	6.00 to 7.00
CCOc1ccc(C(=O)c2cc3cc(C)n(CCN4CCOCC4)c3s2)c(F)c1 [Compound 89, (4-Ethoxy-2-fluorophenyl)(5-methyl-6-(2-morpholinoethyl)-6H-thieno[2,3-b]pyrrol-2-yl)methanone]	> 7.00	5.00 to 6.00
COc1ccc(C(=O)c2cc3cc(C)n(CCN4CCCCC4)c3s2)c(Cl)c1 [Compound 90, (2-Chloro-4-methoxyphenyl)(5-methyl-6-(2-(piperidin-1-yl)ethyl)-6H-thieno[2,3-b]pyrrol-2-yl)methanone]	> 7.00	6.00 to 7.00
COc1ccc(C(=O)c2cc3cc(C)n(CCN4CCCC4)c3s2)c(F)c1 [Compound 92, (2-Fluoro-4-methoxyphenyl)(5-methyl-6-(2-(pyrrolidin-1-yl)ethyl)-6H-thieno[2,3-b]pyrrol-2-yl)methanone]	> 7.00	5.00 to 6.00
COc1ccc(C(=O)c2cc3cc(C)n(CCN4CCCC4)c3s2)c(Cl)c1 [Compound 93, (2-Chloro-4-methoxyphenyl)(5-methyl-6-(2-(pyrrolidin-1-yl)ethyl)-6H-thieno[2,3-b]pyrrol-2-yl)methanone]	> 7.00	6.00 to 7.00
COc1ccc(C(=O)c2cc3cc(C)n(CCCNS(C)(=O)=O)c3s2)c(C)c1 [Compound 96, N-(3-(2-(4-Methoxy-2-methylbenzoyl)-5-methyl-6H-thieno[2,3-b]pyrrol-6-yl)propyl)methanesulfonamide]	> 7.00	5.00 to 6.00
